Measured values from US8133906B2, “Method of treating amblyopia” (Hermo Pharma Oy, priority 2007, dated 2012).
Entries after “also recorded” stand apart in the source; their conditions may differ.

How the values were obtained:
[1] = system: adult rats, visual cortex contralateral to the deprived eye; assay: Intracortical infusion of diazepam or vehicle during MD in fluoxetine treated rats, C/I VEP ratio; type: in vivo, rat; conditions: cortical diazepam 2 mg/ml during last week of chronic fluoxetine
Experimental: Additional doses of urethane were used to keep the anesthesia level stable throughout the experiment. Body temperature was continuously monitored and maintained at ˜37° C. by a thermostated electric blanket during the experiment. An ECG was continuously monitored. A hole was drilled in the skull, corresponding to the binocular portion of the primary visual cortex (binocular area OclB) contralateral to the deprived eye. After exposure of the brain surface, the dura was removed, and a micropipette (2 MΩ) filled with NaCl (3 M) was inserted into the cortex 5 mm from λ (intersection between sagittal- and lambdoid-sutures). Both eyes were fixed and kept open by means of adjustable metal rings surrounding the external portion of the eye bulb. We measured visual acuity through both eyes using visual evoked potentials (VEPs). During recording through one eye, the other was covered by a black adhesive tape. […] Transient VEPs in response to abrupt contrast reversal (0.5 Hz) were evaluated in the time domain by measuring the peak-to-baseline amplitude and peak latency of the major negative component. Visual stimuli were horizontal sinusoidal gratings of different spatial frequencies and contrast, generated by a VSG2/2 card running custom software and presented on a monitor (20×22 cm; luminance 15 cd m^−2) positioned 20 cm from the rat's eyes and centred on the previously determined receptive fields. […]

BDNF = BDNF protein expression by ELISA after repeated fluoxetine administration; type: in vivo, rat; conditions: adult rats
Experimental: (§1) This method of administration yields steady-state plasma concentrations of 356±99 ng/ml in rats, which is within the recommended plasma concentration for the treatment of depression in humans (50-450 ng/ml).
Proteins from fresh visual cortex and hippocampus were initially extracted, respectively, using lysis buffer (1% Triton X-100, 10% Glycerol, 20 mM TrisHCl pH 7.5, 150 mM NaCl, 10 mM EDTA, 0.1 mM Na3VO4, 1¼ g/ml Leupeptin, 1¼ g/ml Aprotinin, 1 mM PMSF). The total concentration of samples was quantified with the protein assay kit (Bio-Rad, Hercules, Calif.) using a BSA based standard curve. Afterwards, BDNF expression was assessed loading 100 μg of total proteins in triplicate in a standard ELISA plate together with a standard curve and processed as indicated in the manufacturer protocol (BDNF, Promega).

[2] = humans; cited from earlier work
[3] = system: adult rat visual cortex slices; assay: LTP recordings in visual cortex slices after theta-burst stimulation from the white matter (WM-LTP); conditions: slices from fluoxetine treated adult rats (P100), measured 20-30 min following TBS
Text: Slices (0.35 mm thick) of visual cortex were obtained using a Leica (Nussloch, Germany) vibratome. […] The recording solution was composed as the cutting solution with the following differences (in mM): 130 NaCl, 5.0 dextrose, 1.0 MgCl2, 2.0 CaCl2, 0.01 glycine, no kynurenate, no sucrose. Electrical stimulation (100 μsec duration) was delivered with a bipolar concentric stimulating electrode (FHC, St. Bowdoinham, Me.) placed at the border of the white matter and layer VI. Field potentials in layers II-III were recorded by a micropipette (1-3MΩ) filled with NaCl (3 M). Baseline responses were obtained every 30 sec with a stimulation intensity that yielded a half-maximal response. After achievement of a 15 min stable baseline (field potential amplitude within 15% of change and with no evident increasing or decreasing trends), θ burst stimulation (TBS) was delivered. Postsynaptic field potentials after TBS were recorded every 30 sec during 30 min.

[4] = system: extracellular GABA and glutamate in visual cortex; assay: In vivo brain microdialysis in the visual cortex with HPLC of GABA and glutamate; design: species or system rat; conditions: adult rats, repeated fluoxetine
Experimental: After the end of repeated treatment with fluoxetine, the in vivo sampling of dialysates was performed inserting a microdialysis probe into the guide shaft previously implanted. A detailed description of the procedure followed is reported in (Hernandez et al., 1986). Briefly, the probe was made of concentric fused-silica polyimide covered capillary tube into a 26 gauge stainless steel tube with a 1 mm long tip of exposed cellulose membrane (6000 MW cut-off). It was connected to a dialysis system pumping an artificial CSF (142 mM NaCl, 3.9 mM KCl, 1.2 mM CaCl2, 1 mM MgCl2, 1.35 mM Na2HPO4, pH 7.4) at a flow rate of 1 μl min^−1. The probe protruded 1 mm from the tip of the guide shaft. Six hours after insertion of the probe (stabilization period), sampling was carried out.
After brain microdialysis, rats were sacrificed with an overdose of chloral hydrate and perfused intracardially as described above. Brains were post-fixed for two hours before being immersed in 30% sucrose in PBS. […]
Analysis of γ-aminobutyric acid (GABA) and glutamate (GLU) basal levels from microdialysates was performed using High Performance Liquid Chromatography (HPLC) coupled to a fluorimetric detection system. […] Homoserine was used as internal standard and amino-acid concentrations were calculated from a linear standard curve built upon known concentrations of injected amino acids. […]

adult amblyopic rats = assay: Behavioral assessment of visual acuity (visual water task) in adult amblyopic rats; type: in vivo, rat; conditions: reverse suture, 4-week fluoxetine, n=5
Experimental: as §1
To perform analysis of long-term MD, rats were anesthetized with avertin (1 ml kg^−1) and monocularly deprived through eyelid suturing at P21. Eyelid closure was inspected daily until complete cicatrization; subjects with even minimal spontaneous re-opening were excluded. […] The long-term deprived eye was re-opened using thin scissors, while the other eye was sutured shut. Great care was taken during the first days after RS to prevent inflammation or infection in the previously deprived eye through topical application of antibiotic and cortisone.
Then, after RS, during the third week of treatment (P90), we started measuring visual acuity of the long term deprived eye. […] To measure visual acuity, we used the visual water task (Prusky et al., 2000) which trains animals to first distinguish a low (0.1 cycles per degree (c deg^−1)) spatial frequency vertical grating from grey, and then tests the limit of this ability at higher spatial frequencies. The apparatus consists of a trapezoidal-shaped pool with two panels placed side by side at one end. […] A trial is recorded as incorrect if an animal enters the arm without the platform. […]

[5] = system: adult amblyopic rats, visual cortex contralateral to the long-term deprived eye; assay: VEP recording of visual acuity and binocularity in adult amblyopic rats (long-term MD from P21, reverse suture); type: in vivo, rat; conditions: long-term MD from P21, reverse suture last two weeks of 4-week fluoxetine, n=5, control 0.62±0.06, fellow eye 1.06±0.01
Experimental: as §1
To perform analysis of long-term MD, rats were anesthetized with avertin (1 ml kg^−1) and monocularly deprived through eyelid suturing at P21. Eyelid closure was inspected daily until complete cicatrization; subjects with even minimal spontaneous re-opening were excluded. […] The long-term deprived eye was re-opened using thin scissors, while the other eye was sutured shut. […]
Additional doses of urethane were used to keep the anesthesia level stable throughout the experiment. Body temperature was continuously monitored and maintained at ˜37° C. by a thermostated electric blanket during the experiment. An ECG was continuously monitored. […] We measured visual acuity through both eyes using visual evoked potentials (VEPs). […] Transient VEPs in response to abrupt contrast reversal (0.5 Hz) were evaluated in the time domain by measuring the peak-to-baseline amplitude and peak latency of the major negative component. […] Binocularity (ocular dominance) was assessed calculating the contralateral to ipsilateral (C/I) VEP ratio, i.e. the ratio of VEP amplitudes recorded by stimulating the eye respectively contralateral and ipsilateral to the visual cortex where recording is performed.

[6] = system: adult Long-Evans hooded rats, binocular visual cortex contralateral to the deprived eye; assay: Ocular dominance plasticity after one week of monocular deprivation (MD) in adult rats, C/I VEP ratio; type: in vivo, rat; conditions: fluoxetine alone, without deprivation of one eye
Experimental: Adult Long-Evans hooded rats were used in this study. Animals were group-housed under standard conditions with food and water ad libitum in plexiglass cages (40×30×20 cm) and kept in a 12:12 light/dark cycle.
Adult animals, under treatment, were anesthetized with avertin (1 ml kg^−1) and mounted on a stereotaxic apparatus to be monocularly deprived. Eyelid closure was inspected daily until complete cicatrization; subjects with even minimal spontaneous re-opening were excluded. Great care was taken during the first days after MD to prevent inflammation or infection of the deprived eye through topical application of antibiotic and cortisone.
Additional doses of urethane were used to keep the anesthesia level stable throughout the experiment. Body temperature was continuously monitored and maintained at ˜37° C. by a thermostated electric blanket during the experiment. An ECG was continuously monitored. A hole was drilled in the skull, corresponding to the binocular portion of the primary visual cortex (binocular area OclB) contralateral to the deprived eye. […] We measured visual acuity through both eyes using visual evoked potentials (VEPs). […] Transient VEPs in response to abrupt contrast reversal (0.5 Hz) were evaluated in the time domain by measuring the peak-to-baseline amplitude and peak latency of the major negative component. […]

| SMILES | Effect on OD shift induced by MD in fluoxetine treated rats [1] | BDNF protein expression in hippocampus vs controls (BDNF; t-test p<0.01 n=6) | BDNF protein expression in visual cortex vs controls (BDNF; t-test p<0.04 n=6) | Recommended (therapeutic) plasma concentration for the treatment of depression [2] | WM-LTP of layer II-III field potentials after theta-burst stimulation vs controls [3] | Extracellular glutamate (GLU) levels vs controls ([4]; data not shown) | Basal extracellular levels of GABA in visual cortex vs controls ([4]; n=5, p<0.02) | Visual acuity of the formerly deprived eye (behavioral, visual water box task) (adult amblyopic rats) | Visual acuity of the formerly deprived eye (VEP) [5] | Responsiveness of either eye to visual stimulation [6] |
| --- | --- | --- | --- | --- | --- | --- | --- | --- | --- | --- |
| CN1C(=O)CN=C(c2ccccc2)c2cc(Cl)ccc21 [diazepam] | prevented the restoration of OD plasticity; also recorded: totally prevented | – | – | – | – | – | – | – | – | – |
| CNCCC(Oc1ccc(C(F)(F)F)cc1)c1ccccc1 (stereo not shown) [fluoxetine] | – | significantly higher; also recorded: similarly enhanced | significantly higher | 50 to 450 ng/mL | significantly enhanced; also recorded: fully restored | No difference | significantly lower; also recorded: significant reduction | 0.88±0.02 c deg^−1 | 0.97±0.04 c deg^−1 | did not produce any changes |
